Source: ChEMBL document CHEMBL4219048, “Identification of cytotoxic, glutathione-reactive moieties inducing accumulation of reactive oxygen species via glutathione depletion” (Bioorg Med Chem, 2018)
Calls of active or inactive are those of the source. No cut-off for these calls is given here.

Legend:
[1] = system: HeLa; experiment: Induction of GSH depletion in human HeLa cells at 10 uM after 1 hr by Ellman's reagent based assay; type: functional
[2] = system: HeLa; experiment: Induction of GSH depletion in human HeLa cells at 0.1 to 100 uM after 1 hr by GSH/GSSG-glo assay relative to control; type: functional, cell-based
[3] = system: HeLa; experiment: Induction of GSH depletion in human HeLa cells at 20 uM after 1 hr by Ellman's reagent based assay; type: functional
[4] = system: HeLa; experiment: Induction of ROS levels in human HeLa cells at 10 uM after 1 hr by CM-H2DCFDA/Hoechst-based fluorescence microscopic analysis relative to 10 uM CDNB; type: functional
[5] = system: HeLa; experiment: Induction of ROS induced cytotoxicity in human HeLa cells assessed as reduction in cell viability at 2.5 to 20 uM incubated for 24 hrs measured at 2 hrs interval by propidium iodide-staining based live cell imaging analysis; type: functional
[6] = GSH reactivity in PBS buffer assessed as compound-GSH conjugate formation at 100 uM after 1 hr in presence of GSH by UHPLC/ESI-MS method; type: physicochemical
[7] = system: U2OS; experiment: Induction of ROS levels in human U2OS cells at 10 uM after 30 mins by CM-H2DCFDA/Hoechst-based fluorescence microscopic analysis relative to 10 uM CDNB; type: functional
[8] = system: U2OS; experiment: Induction of GSH depletion in human U2OS cells assessed as GSH content at 10 uM by GSH/GSSG-Glo assay relative to DMSO; type: functional
[9] = system: HeLa; experiment: Induction of ROS induced cytotoxicity in human HeLa cells assessed as reduction in cell viability at 10 uM incubated for 24 hrs measured at 2 hrs interval by propidium iodide-staining based real time live cell imaging analysis; type: functional
[10] = system: HeLa; experiment: Induction of ROS induced cytotoxicity in human HeLa cells assessed as morphological changes at 10 uM incubated for 24 hrs measured after 2 hrs by propidium iodide-staining based real time live cell imaging analysis; type: functional
[11] = system: HeLa; experiment: Induction of ROS induced cytotoxicity in human HeLa cells at 10 uM administered after 1 hr pretreatment with NAC incubated for 24 hrs measured at 2 hrs interval by propidium iodide staining based real time live cell imaging analysis; type: functional
[12] = system: HeLa; experiment: Induction of ROS induced cytotoxicity in human HeLa cells assessed as reduction in cell viability at 5 uM incubated for 24 hrs measured at 2 hrs interval by propidium iodide-staining based real time live cell imaging analysis; type: functional
[13] = GSH reactivity in PBS buffer assessed as retention time for compound-GSH conjugate formation at 100 uM after 1 hr in presence of GSH by UHPLC/ESI-MS method; type: physicochemical
[14] = system: HeLa; experiment: Induction of GSH depletion in human HeLa cells after 1 hr by GSH/GSSG-glo assay relative to control; type: functional, cell-based
[15] = system: HeLa; experiment: Induction of ROS induced cytotoxicity in human HeLa cells at 5 uM incubated for 24 hrs in presence of BSO measured at 2 hrs interval by propidium iodide staining based real time live cell imaging analysis; type: functional
[16] = system: HeLa; experiment: Induction of ROS induced cytotoxicity in human HeLa cells at 2.5 uM incubated for 24 hrs in presence of BSO measured at 2 hrs interval by propidium iodide staining based real time live cell imaging analysis; type: functional
[17] = system: HeLa; experiment: Induction of GSH depletion in human HeLa cells at 5 uM after 1 hr by Ellman's reagent based assay; type: functional
[18] = system: HeLa; experiment: Induction of ROS induced cytotoxicity in human HeLa cells at 5 uM administered after 1 hr pretreatment with NAC incubated for 24 hrs measured at 2 hrs interval by propidium iodide staining based real time live cell imaging analysis; type: functional

## O=c1cc(Cn2ncc(Cl)c(Cl)c2=O)[nH]c(=O)[nH]1
[1]
  Activity: inactive
[2]
  Activity: Active
[3]
  Activity: 21.3%
[4]
  Activity: 9.73%
[5]
  Activity: inactive
[6]
  Activity: Active

## COCCOc1ccc(CNC(=O)c2nc(Cl)c(Cl)c(Cl)c2Cl)cc1
[2]
  Activity: Active

## O=C(Cn1ncc(Br)c(Br)c1=O)C12CC3CC(CC(C3)C1)C2
[2]
  Activity: Active
[7]
  Activity: 88%
[8]
  Activity: 13.2%

## Cc1nnc(NC(=O)c2nc(S(=O)(=O)Cc3ccccc3)ncc2Cl)s1
[7]
  Activity: 92%
[8]
  Activity: 34.32%

## O=c1c(Cl)c(Cl)cnn1-c1ccc(S(=O)(=O)NCc2cc(-c3ccccc3)no2)cc1
[7]
  Activity: 129%
[8]
  Activity: 24.31%

## O=c1c(Br)c(Br)cnn1Cc1ccccc1
[2]
  Activity: Active
[7]
  Activity: 77%
[8]
  Activity: 37.49%

## O=C1CC(c2cccc3ccccc23)CC1=O
[7]
  Activity: 110%
[8]
  Activity: 24.43%

## CCS(=O)(=O)c1ncc(Cl)c(C(=O)Nc2ccc(-c3nc4ccc(C)cc4s3)cc2)n1
[7]
  Activity: 127%
[8]
  Activity: 37.49%

## CCN(CC)C(=O)c1cccc(NS(=O)(=O)c2ccc(-n3ncc(Cl)c(Cl)c3=O)cc2)c1
[2]
  Activity: Active
[7]
  Activity: 98%
[8]
  Activity: 30.8%

## Clc1ncnc2c1oc1ccccc12
[7]
  Activity: 116%
[8]
  Activity: 25.49%

## O=c1c(Br)c(Br)cnn1CC(O)COc1cccc(Br)c1 (configuration not stated)
[2]
  Activity: Active

## Cc1cccc(CS(=O)(=O)c2ncc(Cl)c(C(=O)Nc3nc4ccc(C)cc4s3)n2)c1
[7]
  Activity: 106%
[8]
  Activity: 37.21%

## NC(=O)C1CCN(C(=O)c2nc(Cl)c(Cl)c(Cl)c2Cl)CC1
[9]
  Activity: Active
[1]
  Activity: Active
[2]
  Activity: Active
[7]
  Activity: 55%
[8]
  Activity: 24.15%
[4]
  Activity: 98.33%
[6]
  Activity: Active

## O=C(Nc1ccccc1Br)c1c(Cl)nc(Cl)c(Cl)c1Cl
[2]
  Activity: Active
[7]
  Activity: 91%
[8]
  Activity: 36.07%

## O=C(Cn1ncc(Cl)c(Cl)c1=O)N(C1=CCCCC1)C1CC1
[7]
  Activity: 70%
[8]
  Activity: 38.9%

## O=C(Cn1ncc(Cl)c(Cl)c1=O)N1CCCC1c1ccc2c(c1)OCCO2 (configuration not stated)
[9]
  Activity: Active
[1]
  Activity: Active
[10]
  Activity: Active
[2]
  Activity: Active
[4]
  Activity: 78.23%
[6]
  Activity: Active

## CCCS(=O)(=O)c1ncc(Cl)c(C(=O)Nc2nc(C)c(C(=O)OCC(C)C)s2)n1
[7]
  Activity: 130%
[8]
  Activity: 23.2%

## COc1ccc(N(C)C(=O)c2nc(Cl)c(Cl)c(Cl)c2Cl)cc1OC
[2]
  Activity: Active

## CC(C)N(C(=O)Cn1ncc(Br)c(Br)c1=O)c1ccccc1
[2]
  Activity: Active
[7]
  Activity: 67%
[8]
  Activity: 20.43%

## O=C(Cn1ncc(Cl)c(Cl)c1=O)N(Cc1ccco1)CC(F)(F)F
[7]
  Activity: 75%
[8]
  Activity: 35.84%

## O=C(Cn1ncc(Cl)c(Cl)c1=O)N1CCc2cc(S(=O)(=O)N3CCCCC3)ccc21
[7]
  Activity: 104%
[8]
  Activity: 35.26%

## CCCNC(=O)c1c(Cl)nc(Cl)c(Cl)c1Cl
[2]
  Activity: Active

## COc1ccc2c(c1)CCCN2S(=O)(=O)c1ccc(-n2ncc(Cl)c(Cl)c2=O)cc1
[7]
  Activity: 52%
[8]
  Activity: 29.49%

## O=c1c(Cl)c(Cl)cnn1Cc1nc2ccccc2n1C(F)F
[7]
  Activity: 111%
[8]
  Activity: 31.86%

## CCS(=O)(=O)c1ncc(Cl)c(C(=O)Nc2c(C(=O)Nc3ccccc3)oc3ccccc23)n1
[7]
  Activity: 83%
[8]
  Activity: 39.62%

## COc1ccc(OC)c(NC(=O)c2c(Cl)nc(Cl)c(Cl)c2Cl)c1
[11]
  Activity: inactive
[12]
  Activity: Active
[1]
  Activity: inactive
[10]
  Activity: Active
[2]
  Activity: inactive
[13]
  Retention_time: 3.48 min
[14]
  Activity: Dose-dependent effect
[7]
  Activity: 69%
[15]
  Activity: Active
[8]
  Activity: 39.27%
[4]
  Activity: 73.78%
[6]
  Activity: Active

## COc1ccc2nc(NC(=O)c3nc(S(C)(=O)=O)ncc3Cl)sc2c1
[7]
  Activity: 107%
[8]
  Activity: 30.72%

## O=C(c1c(Cl)nc(Cl)c(Cl)c1Cl)N1CCOCC1
[2]
  Activity: Active

## Cc1cccc(NC(=O)c2nc(Cl)c(Cl)c(Cl)c2Cl)c1C
[2]
  Activity: Active

## CN(C(=O)Cn1ncc(Br)c(Br)c1=O)C1CCCc2ccccc21 (configuration not stated)
[12]
  Activity: Active
[16]
  Activity: Active
[1]
  Activity: 38%
[10]
  Activity: Active
[17]
  Activity: 23.1%
[2]
  Activity: Active
[13]
  Retention_time: 3.41 min
[18]
  Activity: inactive
[7]
  Activity: 60%
[8]
  Activity: 9.56%
[4]
  Activity: 63.96%
[6]
  Activity: Active

## CC(=O)c1c(C)[nH]c(C(=O)Cn2ncc(Cl)c(Cl)c2=O)c1C
[2]
  Activity: Active
[7]
  Activity: 100%
[8]
  Activity: 32.83%

## N#Cc1c(Cl)nc(N2CCOCC2)c(Cl)c1Cl
[7]
  Activity: 82%
[8]
  Activity: 22.32%

## CC(=O)c1ccc(N2CCN(C(=O)Cn3ncc(Cl)c(Cl)c3=O)CC2)c(F)c1
[2]
  Activity: Active
[7]
  Activity: 113%
[8]
  Activity: 30.95%

## O=C(CN1CCCC1c1ccc2c(c1)OCCO2)Cn1ncc(Cl)c(Cl)c1=O (configuration not stated)
[7]
  Activity: 163%
[8]
  Activity: 19.2%

## CCCS(=O)(=O)c1ncc(Cl)c(C(=O)Nc2nc3ccc(F)cc3s2)n1
[7]
  Activity: 97%
[8]
  Activity: 11.22%

## CC(NC(=O)Cn1ncc(Cl)c(Cl)c1=O)c1ccc(F)cc1 (configuration not stated)
[7]
  Activity: 79%
[8]
  Activity: 22.59%

## O=[N+]([O-])c1ccc(Cl)c([N+](=O)[O-])c1
[1]
  Activity: Active

## O=C(NCc1ccc(Cl)cc1)c1c(Cl)nc(Cl)c(Cl)c1Cl
[2]
  Activity: Active
[7]
  Activity: 87%
[8]
  Activity: 30.39%

## CCOC(=O)C1CCN(C(=O)Cn2ncc(Cl)c(Cl)c2=O)CC1
[7]
  Activity: 95%
[8]
  Activity: 35.47%

## COc1cccc(CNC(=O)COC(=O)c2nc(Cl)c(Cl)c(Cl)c2Cl)c1
[1]
  Activity: inactive
[2]
  Activity: inactive
[4]
  Activity: 12.14%
[5]
  Activity: inactive
[6]
  Activity: Active
